We go through 31 compounds from US20260258064A1 (SIRONAX LTD., priority 2023, published 2026).

As usually defined, the IC50 is the point on the concentration scale where inhibition reaches its midpoint.

For this assay, the target named is T1, SARM1 (50-724) (Homo sapiens, UniProt Q6SZW1).
T1 construct: Purified SARM1 (50-724) with a final concentration of 2 nM was pre-incubated with a test compound
T1 sequence (Q6SZW1 50-724): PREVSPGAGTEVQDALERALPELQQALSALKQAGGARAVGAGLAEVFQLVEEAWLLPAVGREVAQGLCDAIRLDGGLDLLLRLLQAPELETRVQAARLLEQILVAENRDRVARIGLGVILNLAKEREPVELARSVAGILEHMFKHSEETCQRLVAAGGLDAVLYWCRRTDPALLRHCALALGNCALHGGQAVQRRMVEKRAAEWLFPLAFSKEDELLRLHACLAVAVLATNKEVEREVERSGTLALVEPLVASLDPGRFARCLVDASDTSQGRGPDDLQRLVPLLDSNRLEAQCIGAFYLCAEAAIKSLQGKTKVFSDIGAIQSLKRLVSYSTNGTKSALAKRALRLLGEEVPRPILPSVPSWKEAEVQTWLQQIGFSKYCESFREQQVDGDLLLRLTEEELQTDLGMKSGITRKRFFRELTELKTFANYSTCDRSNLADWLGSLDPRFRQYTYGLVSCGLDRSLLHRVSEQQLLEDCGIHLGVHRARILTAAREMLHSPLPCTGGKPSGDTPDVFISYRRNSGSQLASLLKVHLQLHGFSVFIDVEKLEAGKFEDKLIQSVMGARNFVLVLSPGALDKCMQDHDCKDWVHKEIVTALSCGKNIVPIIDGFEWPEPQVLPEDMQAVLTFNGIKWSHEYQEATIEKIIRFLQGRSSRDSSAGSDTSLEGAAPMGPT
As to the kind of experiment: SARM1 (50-724) enzymatic assay (LC-MS/MS). It counts as biochemical. Conditions: Purified SARM1 (50-724) 2 nM, NMN as activator, NAD+ as substrate, 1 h at room temperature, read-out: IC50 (SARM1 inhibitory activity). In a few lines:
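Human SARM1 (50-724), 2 nM, pre-incubated 15 min at room temperature with compound in Dulbecco's PBS. Reaction started with 200 µM NMN (activator) plus […] NAD^+ substrate, run 1 h at room temperature, quenched with 70% acetonitrile. Turnover quantified by LC-MS/MS; IC50 reported.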

Consider `Fc1cccc(-n2c(Cn3ccnn3)nnc2-c2nc3cc(C(F)(F)F)ccc3[nH]2)c1Cl` [Compound 383, 2-(5-((1H-1,2,3-triazol-1-yl)methyl)-4-(2-chloro-3-fluorophenyl)-4H-1,2,4-triazol-3-yl)-5-(trifluoromethyl)-1H-benzo[d]imidazole], for which the IC50 is ≤ 100 nM. Regarding `CCOC(=O)/C=C/c1cccc2[nH]c(-c3nncn3-c3cnccc3C(F)(F)F)nc12` [Compound 459, ethyl (E)-3-(2-(4-(4-(trifluoromethyl)pyridin-3-yl)-4H-1,2,4-triazol-3-yl)-1H-benzo[d]imidazol-4-yl)acrylate], the IC50 lay in the range of 500 to 1000 nM. The figure for `Cc1nccc(-n2cnnc2-c2nc3cc(C(F)(F)F)ccc3[nH]2)c1Cl` [Example 71] is 100 to 500 nM; for `FC(F)(F)Oc1cnc(-n2cccn2)cc1-n1cnnc1-c1nc2cc(C(F)(F)F)ccc2[nH]1` [Compound 264, 2-(4-(2-(1H-pyrazol-1-yl)-5-(trifluoromethoxy)pyridin-4-yl)-4H-1,2,4-triazol-3-yl)-5-(trifluoromethyl)-1H-benzo[d]imidazole] it is ≤ 100 nM. `[2H]C([2H])([2H])N(c1cc(F)c2[nH]c(-c3nncn3-c3cnccc3C(F)(F)F)nc2c1)C([2H])([2H])[2H]` [Compound 403, 7-fluoro-N,N-bis(methyl-d3)-2-(4-(4-(trifluoromethyl)pyridin-3-yl)-4H-1,2,4-triazol-3-yl)-1H-benzo[d]imidazol-5-amine]: the IC50 is ≤ 100 nM. The figure for `N#Cc1c(-n2c(-c3cccc(Cl)c3Cl)n[nH]c2=O)[nH]c2ccc(C(F)(F)F)cc12` [Compound 41, 2-(3-(2,3-dichlorophenyl)-5-oxo-1,5-dihydro-4H-1,2,4-triazol-4-yl)-5-(trifluoromethyl)-1H-indole-3-carbonitrile] is > 1000 nM; for `Cn1cc(-c2ccccc2)c(-c2nc3cc(C(F)(F)F)ccc3[nH]2)cc1=O` [Example 86] it is > 1000 nM. The figure for `Fc1cc(C2CC2)cc2nc(-c3nncn3-c3cnccc3C(F)(F)F)[nH]c12` [Compound 270, 5-cyclopropyl-7-fluoro-2-(4-(4-(trifluoromethyl)pyridin-3-yl)-4H-1,2,4-triazol-3-yl)-1H-benzo[d]imidazole] is ≤ 100 nM. As for `OCCOc1cc(-n2cnnc2-c2nc3cc(C(F)(F)F)ccc3[nH]2)c(OC(F)(F)F)cn1` [Compound 241, 2-((5-(trifluoromethoxy)-4-(3-(5-(trifluoromethyl)-1H-benzo[d]imidazol-2-yl)-4H-1,2,4-triazol-4-yl)pyridin-2-yl)oxy)ethan-1-ol], the IC50 was ≤ 100 nM. In the case of `CCn1ccc2[nH]c(-c3nncn3-c3cccc(F)c3Cl)cc2c1=O` [Compound 308, 2-(4-(2-chloro-3-fluorophenyl)-4H-1,2,4-triazol-3-yl)-5-ethyl-1,5-dihydro-4H-pyrrolo[3,2-c]pyridin-4-one] it was 100 to 500 nM; in that of `FC(F)(F)c1ccc2[nH]c(-c3nocc3-c3cccc(Cl)c3Cl)nc2c1` [Compound 322, 4-(2,3-dichlorophenyl)-3-(5-(trifluoromethyl)-1H-benzo[d]imidazol-2-yl)isoxazole], 100 to 500 nM; in that of `N#CC1(c2c(-c3nncn3-c3cnccc3C(F)(F)F)[nH]c3ccc(C(F)(F)F)cc23)CC1` [Compound 425, 1-[5-(trifluoromethyl)-2-[4-[4-(trifluoromethyl)-3-pyridyl]-1,2,4-triazol-3-yl]-1H-indol-3-yl]cyclopropanecarbonitrile], ≤ 100 nM. As to `OCC(F)(F)COc1ccc(OC(F)(F)F)c(-n2cnnc2-c2nc3cc(C(F)(F)F)ccc3[nH]2)n1` [Compound 251, 2,2-difluoro-3-((5-(trifluoromethoxy)-6-(3-(5-(trifluoromethyl)-1H-benzo[d]imidazol-2-yl)-4H-1,2,4-triazol-4-yl)pyridin-2-yl)oxy)propan-1-ol], the IC50 is ≤ 100 nM. As for `FC(F)(F)c1ccc2[nH]c([C@H]3COC[C@H]3c3ccccc3)nc2c1` (single isomer, unassigned) [Compound 351], the IC50 was > 1000 nM. In the case of `OCCOc1cc(-n2cnnc2-c2cc3cc(C(F)(F)F)cc(F)c3[nH]2)c(OC(F)(F)F)cn1` [Compound 411, 2-((4-(3-(7-fluoro-5-(trifluoromethyl)-1H-indol-2-yl)-4H-1,2,4-triazol-4-yl)-5-(trifluoromethoxy)pyridin-2-yl)oxy)ethanol] it was ≤ 100 nM. Regarding `CC(C#N)(CO)c1ccc2[nH]c(-c3nncn3-c3cccc(F)c3Cl)nc2c1` (stereo not shown) [Compound 204, 2-(2-(4-(2-chloro-3-fluorophenyl)-4H-1,2,4-triazol-3-yl)-1H-benzo[d]imidazol-5-yl)-3-hydroxy-2-methylpropanenitrile], the IC50 was ≤ 100 nM. `FC(F)(F)c1ccc2[nH]c(-c3nncn3-c3cnccc3C(F)(F)F)c(-c3cccnc3)c2c1` [Compound 387, 3-(pyridin-3-yl)-5-(trifluoromethyl)-2-(4-(4-(trifluoromethyl)pyridin-3-yl)-4H-1,2,4-triazol-3-yl)-1H-indole]: the IC50 is ≤ 100 nM. The figure for `CC(C)(N)c1ccc2[nH]c(-c3nncn3-c3cnccc3C(F)(F)F)nc2c1` [Compound 448, 2-[2-[4-[4-(trifluoromethyl)-3-pyridyl]-1,2,4-triazol-3-yl]-1H-benzimidazol-5-yl]propan-2-amine] is 100 to 500 nM. In the case of `Fc1cc(C2(F)CC2)cc2nc(-c3nncn3-c3cnccc3C(F)(F)F)[nH]c12` [Compound 285, 7-fluoro-5-(1-fluorocyclopropyl)-2-(4-(4-(trifluoromethyl)pyridin-3-yl)-4H-1,2,4-triazol-3-yl)-1H-benzo[d]imidazole] it was ≤ 100 nM. In the case of `CS(=O)(=O)Cc1nnc(-c2nc3cc(C(F)(F)F)ccc3[nH]2)n1-c1cccc(Cl)c1Cl` [Example 88, 2-(4-(2,3-dichlorophenyl)-5-((methylsulfonyl)methyl)-4H-1,2,4-triazol-3-yl)-5-(trifluoromethyl)-1H-benzo[d]imidazole] it was ≤ 100 nM; in that of `FC(F)(F)c1ccc2[nH]c(-c3nncnc3-c3cccc(Cl)c3Cl)nc2c1` [Compound 307, 2-(5-(2,3-dichlorophenyl)-1,2,4-triazin-6-yl)-5-(trifluoromethyl)-1H-benzo[d]imidazole], ≤ 100 nM; in that of `FC(F)(F)c1cnc2[nH]c(-c3nncn3-c3cnccc3C(F)(F)F)cc2n1` [Compound 356, 2-(trifluoromethyl)-6-(4-(4-(trifluoromethyl)pyridin-3-yl)-4H-1,2,4-triazol-3-yl)-5H-pyrrolo[2,3-b]pyrazine], ≤ 100 nM. As for `CN(C)c1cc(F)c2[nH]c(-c3nncn3-c3cnccc3C(F)(F)F)nc2c1` [Compound 297, 7-fluoro-N,N-dimethyl-2-(4-(4-(trifluoromethyl)pyridin-3-yl)-4H-1,2,4-triazol-3-yl)-1H-benzo[d]imidazol-5-amine], the IC50 is ≤ 100 nM. For the compound `CS(=O)(=O)c1ccc2[nH]c(-c3nncn3-c3cccc(Cl)c3Cl)nc2c1` [Example 46, 2-(4-(2,3-dichlorophenyl)-4H-1,2,4-triazol-3-yl)-5-(methylsulfonyl)-1H-benzo[d]imidazole], the IC50 lay within 100 to 500 nM. The figure for `FC(F)(F)c1ccc2[nH]c(-c3nncn3-c3cccn4ccnc34)nc2c1` [Example 70] is > 1000 nM. Take `COc1cc(-c2nc3cc(C(F)(F)F)ccc3[nH]2)c(-c2cccc(Cl)c2Cl)cn1` [Compound 402, 2-(5-(2,3-dichlorophenyl)-2-methoxypyridin-4-yl)-5-(trifluoromethyl)-1H-benzo[d]imidazole]: the half-inhibitory concentration (IC50) is 100 to 500 nM. In the case of `C[S+]([O-])c1c(Br)ccc2[nH]c(-c3nncn3-c3cccc(Cl)c3Cl)nc12` (stereo not shown) [Example 94, 5-bromo-2-(4-(2,3-dichlorophenyl)-4H-1,2,4-triazol-3-yl)-4-(methylsulfinyl)-1H-benzo[d]imidazole] it was 500 to 1000 nM; in that of `N#Cc1c(Cl)cccc1-n1cnnc1-c1nc2cc(C(F)(F)F)ccc2[nH]1` [Example 91], > 1000 nM; in that of `Fc1cc(N2CCC(F)(F)C2)cc2nc(-c3nncn3-c3cnccc3C(F)(F)F)[nH]c12` [Compound 326, 5-(3,3-difluoropyrrolidin-1-yl)-7-fluoro-2-(4-(4-(trifluoromethyl)pyridin-3-yl)-4H-1,2,4-triazol-3-yl)-1H-benzo[d]imidazole], 100 to 500 nM. Consider `FC(F)(F)c1ccc2[nH]c(-c3n[nH]nc3-c3cccc(Cl)c3Cl)nc2c1` [Compound 274, 2-(5-(2,3-dichlorophenyl)-2H-1,2,3-triazol-4-yl)-5-(trifluoromethyl)-1H-benzo[d]imidazole], for which the IC50 lay within 500 to 1000 nM. In the case of `FC(F)(F)Oc1cnccc1-n1cnnc1-c1nc2cc(C(F)(F)F)cc(Cl)c2[nH]1` [Compound 227, 7-chloro-2-(4-(3-(trifluoromethoxy)pyridin-4-yl)-4H-1,2,4-triazol-3-yl)-5-(trifluoromethyl)-1H-benzo[d]imidazole] it was ≤ 100 nM.
